Reference: patent US10294212B2 (CURADEV PHARMA PRIVATE LTD., priority 2013, dated 2019)
Counter-ions that a name gives are not always drawn.

Key:
[1] = biological target: IDO1 in HeLa cells (Homo sapiens (Human), UniProt P14902); assay: HeLa cell based IDO1 assay (IFNγ-induced, KYN in supernatant)
Procedure, shortened: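 Kynurenine in the supernatant, quantified by C-18 HPLC with 360 nm absorbance after TCA hydrolysis (65 °C, 15 min), was the read-out. Compounds (typically 10 μM to 1 nM) were added in HBSS containing 80 μM tryptophan to HeLa cells pre-induced overnight with 50 ng/mL IFNγ. IC50 came from nonlinear fits of % inhibition versus 1% DMSO vehicle.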

[2] = biological target: Human TDO (hTDO)-transfected CHO-K1 cells (Homo sapiens (Human), UniProt P48775); assay: CHO-K1 cell based TDO assay; settings: hTDO cellular assay
Procedure, shortened: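 Kynurenine output was read by LC/MS/MS after TCA precipitation and 15 min at 65° C. Before that, CHO-K1 cells stably carrying human TDO2 were incubated 2 h with compounds (typically 31 μM to 10 nM) and 80 μM L-tryptophan in HBSS. Decrease versus DMSO vehicle gave percent inhibition, then IC50.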

[3] = biological target: Human indoleamine 2,3-dioxygenase1 (hIDO1) (Homo sapiens (Human), UniProt P14902); assay: In-vitro IDO1 enzyme assay (conversion of L-tryptophan to KYN); format: biochemical; settings: read-out: IC50 (IDO1) Enz
Procedure, shortened: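 Kynurenine formation quantified by HPLC absorbance at 360 nm or LC/MS/MS after TCA quench and 15 min at 65 °C. Reaction: 10 nM N-His hIDO1, 30 μM tryptophan, ascorbate/methylene blue/catalase, pH 6.5 phosphate buffer, 37 °C for 30 min. Inhibition relative to 1% DMSO vehicle, fitted to IC50.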

Human TDO (hTDO)-transfected CHO-K1 cells, sequence (P48775 whole entry): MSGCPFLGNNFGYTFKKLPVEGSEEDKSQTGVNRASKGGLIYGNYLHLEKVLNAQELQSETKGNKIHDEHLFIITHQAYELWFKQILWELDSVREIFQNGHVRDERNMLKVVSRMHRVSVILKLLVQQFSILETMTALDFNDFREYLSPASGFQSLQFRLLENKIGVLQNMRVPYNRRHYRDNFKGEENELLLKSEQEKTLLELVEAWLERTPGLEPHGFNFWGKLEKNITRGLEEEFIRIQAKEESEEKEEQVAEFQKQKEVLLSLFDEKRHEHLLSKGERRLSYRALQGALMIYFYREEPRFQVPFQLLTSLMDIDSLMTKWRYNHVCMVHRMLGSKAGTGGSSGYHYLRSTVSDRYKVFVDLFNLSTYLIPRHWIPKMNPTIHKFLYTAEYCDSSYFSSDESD
Human indoleamine 2,3-dioxygenase1 (hIDO1), sequence (P14902 whole entry): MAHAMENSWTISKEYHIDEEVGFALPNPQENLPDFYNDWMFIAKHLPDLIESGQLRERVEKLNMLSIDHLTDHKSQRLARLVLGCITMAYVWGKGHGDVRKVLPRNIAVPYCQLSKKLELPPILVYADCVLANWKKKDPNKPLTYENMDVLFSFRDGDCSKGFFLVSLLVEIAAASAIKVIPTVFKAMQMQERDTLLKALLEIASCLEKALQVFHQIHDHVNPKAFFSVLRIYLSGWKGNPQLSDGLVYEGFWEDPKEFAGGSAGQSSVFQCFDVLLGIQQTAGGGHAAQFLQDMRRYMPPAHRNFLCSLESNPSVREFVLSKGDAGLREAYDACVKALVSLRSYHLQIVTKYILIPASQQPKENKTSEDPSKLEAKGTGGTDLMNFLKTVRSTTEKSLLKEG
IDO1 in HeLa cells, sequence (P14902 whole entry): as above

IC50 [1] | IC50 [2] | IC50 [3] | Structure (SMILES)
< 200 nM | 500 to 2000 nM | < 200 nM | Nc1oc2c(-c3ccc(F)cc3)nccc2c1Nc1ccc(F)c(Cl)c1 [Compound 147, N^3-(3-Chloro-4-fluorophenyl)-7-(4-fluorophenyl)furo[2,3-c]pyridine-2,3-diamine]
< 200 nM | 500 to 2000 nM | < 200 nM | Nc1oc2cnc(Cl)cc2c1Nc1ccc(F)c(Cl)c1 [Compound 177, 5-Chloro-N3-(3-chloro-4-fluorophenyl)furo[2,3-c]pyridine-2,3-diamine]
< 200 nM | 500 to 2000 nM | < 200 nM | CNC(=O)c1cc(-c2nccc3c(Nc4ccc(F)c(F)c4)c(N)oc23)ccn1 [Compound 223, 4-(2-Amino-3-((3,4-difluorophenyl)amino)furo[2,3-c]pyridin-7-yl)-N-methylpicolinamide]
< 200 nM | < 500 nM | < 200 nM | CCc1nccc2c(Nc3ccc(F)c(Cl)c3)c(N)oc12 [Compound 73, N^3-(3-Chloro-4-fluoro-phenyl)-7-ethyl-furo[2,3-c]pyridine-2,3-diamine]
< 200 nM | 500 to 2000 nM | < 200 nM | Nc1oc2c(-c3ccnc(C(=O)NCCN4CCOCC4)c3)nccc2c1Nc1ccc(F)c(Cl)c1 [Compound 274, 4-(2-Amino-3-((3-chloro-4-fluorophenyl)amino)furo[2,3-c]pyridin-7-yl)-N-(2-morpholinoethyl)picolinamide]
< 200 nM | > 2000 nM | < 200 nM | Nc1oc2c(-c3cccc(C(F)(F)F)c3)nccc2c1Nc1ccc(F)c(Cl)c1 [Compound 199, N^3-(3-Chloro-4-fluorophenyl)-7-(3-(trifluoromethyl)phenyl)furo[2,3-c]pyridine-2,3-diamine]
< 200 nM | > 2000 nM | < 200 nM | Nc1oc2c(-c3ccccc3)nccc2c1Nc1cccc(C(F)(F)F)c1 [Compound 82, 7-Phenyl-N^3-(3-(trifluoromethyl)phenyl)furo[2,3-c]pyridine-2,3-diamine]
200 to 1000 nM | > 2000 nM | < 200 nM | CC(C)(C)c1cc(-c2nccc3c(Nc4ccc(F)c(Cl)c4)c(N)oc23)ccn1 [Compound 259, 7-(2-(tert-Butyl)pyridin-4-yl)-N^3-(3-chloro-4-fluorophenyl)furo[2,3-c]pyridine-2,3-diamine]
< 200 nM | < 500 nM | < 200 nM | Nc1oc2cnc(F)cc2c1Nc1ccc(F)c(F)c1 [Compound 216, N^3-(3,4-difluorophenyl)-5-fluorofuro[2,3-c]pyridine-2,3-diamine]
200 to 1000 nM | > 2000 nM | < 200 nM | Nc1oc2c(-c3ccnc(C(=O)Nc4ccccc4)c3)nccc2c1Nc1ccc(F)c(Cl)c1 [Compound 249, 4-(2-Amino-3-((3-chloro-4-fluorophenyl)amino)furo[2,3-c]pyridin-7-yl)-N-phenylpicolinamide]
< 200 nM | 500 to 2000 nM | < 200 nM | COc1cc2c(Nc3ccc(F)c(Cl)c3)c(N)oc2c(C)n1 [Compound 85, N^3-(3-Chloro-4-fluoro-phenyl)-5-methoxy-7-methyl-furo[2,3-c]pyridine-2,3-diamine]
< 200 nM | < 500 nM | < 200 nM | Nc1oc2c(-c3ccccc3Cl)nccc2c1Nc1ccc(F)c(F)c1 [Compound 197, 7-(2-Chlorophenyl)-N^3-(3,4-difluorophenyl)furo[2,3-c]pyridine-2,3-diamine]
< 200 nM | 500 to 2000 nM | < 200 nM | CCc1nccc2c(Nc3cccc(C(F)(F)F)c3)c(N)oc12 [Compound 76, 7-Ethyl-N^3-(3-(trifluoromethyl)phenyl)furo[2,3-c]pyridine-2,3-diamine]
200 to 1000 nM | 500 to 2000 nM | < 200 nM | Nc1sc2c(Br)cccc2c1Nc1ccc(F)c(Cl)c1 [Compound 210, 7-Bromo-N^3-(3-chloro-4-fluorophenyl)benzo[b]thiophene-2,3-diamine hydrochloride]
< 200 nM | 500 to 2000 nM | < 200 nM | Nc1oc2cnccc2c1Nc1ccc(F)c(C(F)(F)F)c1 [Compound 60, N^3-(4-Fluoro-3-(trifluoromethyl)phenyl)furo[2,3-c]pyridine-2,3-diamine]
< 200 nM | > 2000 nM | < 200 nM | CC(C)(C)NC(=O)c1cc(-c2nccc3c(Nc4ccc(F)c(Cl)c4)c(N)oc23)ccn1 [Compound 251, 4-(2-Amino-3-((3-chloro-4-fluorophenyl)amino)furo[2,3-c]pyridin-7-yl)-N-(tert-butyl)picolinamide]
< 200 nM | 500 to 2000 nM | < 200 nM | CCc1cc(-c2nccc3c(Nc4ccc(F)c(Cl)c4)c(N)oc23)ccn1 [Compound 262, N^3-(3-Chloro-4-fluorophenyl)-7-(2-ethylpyridin-4-yl)furo[2,3-c]pyridine-2,3-diamine]

Structure (SMILES) | IC50 [1] | IC50 [2] | IC50 [3]
Nc1oc2cnccc2c1Nc1ccc(Cl)c(Cl)c1 [Compound 15, N^3-(3,4-Dichlorophenyl)furo[2,3-c]pyridine-2,3-diamine] | 200 to 1000 nM | 500 to 2000 nM | 200 to 1000 nM
Nc1sc2ccccc2c1Nc1ccc(F)cc1 [Compound 231, N^3-(4-Fluorophenyl)benzo[b]thiophene-2,3-diamine] | 200 to 1000 nM | > 2000 nM | 200 to 1000 nM
COc1ccccc1-c1nccc2c(Nc3ccc(F)c(F)c3)c(N)oc12 [Compound 196, N^3-(3,4-Difluorophenyl)-7-(2-methoxyphenyl)furo[2,3-c]pyridine-2,3-diamine] | < 200 nM | < 500 nM | 200 to 1000 nM
N#Cc1cccc(Nc2c(N)oc3cnccc23)c1 [Compound 99, 3-((2-Aminofuro[2,3-c]pyridin-3-yl)amino)benzonitrile] | < 200 nM | > 2000 nM | > 1000 nM
Nc1oc2cnccc2c1Nc1ccc(F)cc1Br [Compound 10, N^3-(2-Bromo-4-fluorophenyl)furo[2,3-c]pyridine-2,3-diamine] | 200 to 1000 nM | > 2000 nM | > 1000 nM
Nc1oc2cnccc2c1Nc1cccc(F)c1 [Compound 46, N^3-(3-Fluorophenyl)furo[2,3-c]pyridine-2,3-diamine] | < 200 nM | 500 to 2000 nM | 200 to 1000 nM
CC(C)c1cccc(Nc2c(N)oc3cnccc23)c1 [Compound 43, N^3-(3-Isopropylphenyl)furo[2,3-c]pyridine-2,3-diamine] | < 200 nM | > 2000 nM | 200 to 1000 nM
COc1cncc2oc(N)c(Nc3ccc(F)c(Cl)c3)c12 [Compound 67, N^3-(3-Chloro-4-fluoro-phenyl)-4-methoxy-furo[2,3-c]pyridine-2,3-diamine] | < 200 nM | 500 to 2000 nM | > 1000 nM
Nc1oc2cnccc2c1Nc1ccc(Br)cc1 [Compound 16, N^3-(4-Bromophenyl)furo[2,3-c]pyridine-2,3-diamine] | 200 to 1000 nM | 500 to 2000 nM | > 1000 nM
Nc1oc2cnccc2c1Nc1cccc(CC2CC2)c1 [Compound 84, N^3-(3-(Cyclopropylmethyl)phenyl)furo[2,3-c]pyridine-2,3-diamine] | 200 to 1000 nM | > 2000 nM | > 1000 nM
